From US10076116B2, “N-cycloalkyl-N-(biheterocyclymethylene)-(thio)carboxamide derivatives” (BAYER CROPSCIENCE AKTIENGESELLSCHAFT, priority 2013, dated 2018)

Columns and labels:
[1] = log P by HPLC on reversed-phase column (C 18), EEC Directive 79/831 Annex V.A8; assay type: physicochemical; details: HPLC C 18, 40° C., 0.1% aqueous formic acid and acetonitrile, gradient 10% to 90% acetonitrile
Method: In table 1, the log P values were determined in accordance with EEC Directive 79/831 Annex V.A8 by HPLC (High Performance Liquid Chromatography) on a reversed-phase column (C 18), using the method described below: Temperature: 40° C.; Mobile phases: 0.1% aqueous formic acid and acetonitrile; linear gradient from 10% acetonitrile to 90% acetonitrile. Calibration was carried out using unbranched alkan-2-ones (comprising 3 to 16 carbon atoms) with known log P values (determination of the log P values by the retention times using linear interpolation between two successive alkanones). lambda-max-values were determined using UV-spectra from 200 nm to 400 nm and the peak values of the chromatographic signals.

[2] = test system: Puccinia recondita; experiment: In vivo preventive test on Puccinia recondita (brown rust on wheat)
Method: Example C: In Vivo Preventive Test on Puccinia recondita (Brown Rust on Wheat) […]
The young plants of wheat are treated by spraying the active ingredient prepared as described above. […]
After 24 hours, the plants are contaminated by spraying the leaves with an aqueous suspension of Puccinia recondita spores. The contaminated wheat plants are incubated for 24 hours at 20° C. and at 100% relative humidity and then for 10 days at 20° C. and at 70-80% relative humidity.
The test is evaluated 11 days after the inoculation. 0% means an efficacy which corresponds to that of the control plants while an efficacy of 100% means that no disease is observed.

[3] = test system: Botrytis cinerea; experiment: In vivo preventive test on Botrytis cinerea (grey mould); details: gherkin; for protection: dose of 500 and 100 ppm of active ingredient
Method: Example B: In Vivo Preventive Test Botrvtis Cinerea (Grey Mould) Solvent: 5% by volume of Dimethyl sulfoxide • 10% by volume of Acetone Emulsifier: 1 μL of TWEEN® 80 per mg of active ingredient The active ingredients are made soluble and homogenized in a mixture of Dimethyl sulfoxide/Acetone/TWEEN® 80 and then diluted in water to the desired concentration. The young plants of gherkin are treated by spraying the active ingredient prepared as described above. Control plants are treated only with an aqueous solution of Acetone/Dimethyl sulfoxide/TWEEN® 80. After 24 hours, the plants are contaminated by spraying the leaves with an aqueous suspension of Botrytis cinerea spores. The contaminated gherkin plants are incubated for 4 to 5 days at 17° C. and at 90% relative humidity. The test is evaluated 4 to 5 days after the inoculation. 0% means an efficacy which corresponds to that of the control plants while an efficacy of 100% means that no disease is observed.

[4] = test system: Uromyces appendiculatus; experiment: In vivo preventive test on Uromyces appendiculatus (bean rust)
Method: Example G: In Vivo Preventive Test on Uromvces Appendiculatus (Bean Rust) Solvent: 5% by volume of Dimethyl sulfoxide • 10% by volume of Acetone Emulsifier: 1 μL of TWEEN® 80 per mg of active ingredient The active ingredients are made soluble and homogenized in a mixture of Dimethyl sulfoxide/Acetone/TWEEN® 80 and then diluted in water to the desired concentration. The young plants of bean are treated by spraying the active ingredient prepared as described above. Control plants are treated only with an aqueous solution of Acetone/Dimethyl sulfoxide/TWEEN® 80. After 24 hours, the plants are contaminated by spraying the leaves with an aqueous suspension of Uromyces appendiculatus spores. The contaminated bean plants are incubated for 24 hours at 20° C. and at 100% relative humidity and then for 10 days at 20° C. and at 70-80% relative humidity. The test is evaluated 11 days after the inoculation. 0% means an efficacy which corresponds to that of the control plants while an efficacy of 100% means that no disease is observed.

[5] = wheat, compounds of this patent
[6] = dose 100 ppm, wheat, compounds of this patent
[7] = dose 500 ppm, wheat, compounds of this patent
[8] = very similar conditions, formulated in DMF with 2% of alkylarylpolyglycolether
[9] = in very similar conditions, dose of 500 and 100 ppm, analogues of WO2012/059497
[10] = dose 500 ppm, in very similar conditions, prior-art analogues
[11] = dose 125 ppm, in very similar conditions, prior-art analogues
[12] = in very similar conditions, dose of 500 and 125 ppm, analogues of WO2009/016222 and WO2008/037789

Cc1nc(C)c(-c2sccc2CN(C(=O)c2c(C(F)F)nn(C)c2F)C2CC2)s1 [I.11]
logP [1]: 2.88
efficacy ([2]; 500 ppm of active ingredient, wheat plants, evaluated 11 days after inoculation): at least 60%
Efficacy (Table C3) ([2]; dose 500 ppm, wheat, compound of this patent): 69%

Cn1nc(C(F)F)c(C(=O)N(Cc2ncc(C(F)(F)F)cc2-c2cccnc2)C2CC2)c1F [CMP2, N-cyclopropyl-3-(difluoromethyl)-5-fluoro-1-methyl-N-{[5-(trifluoromethyl)-3,3′-bipyridin-2-yl]methyl}-1H-pyrazole-4-carboxamide, reference compound]
Efficacy (Table B1) ([3]; dose 100 ppm): 0%
Efficacy (Table B1) ([3]; dose 500 ppm): 0%
protection [3]: no protection
Efficacy (Table G1) ([4]; dose 100 ppm): 0%
Efficacy (Table G1) ([4]; dose 500 ppm): 0%

Cn1nc(C(F)F)c(C(=O)N(Cc2ncc(C(F)(F)F)cc2-c2cccs2)C2CC2)c1F [I.19]
logP [1]: 3.89
Efficacy (Table B1) ([3]; dose 100 ppm): 100%
Efficacy (Table B1) ([3]; dose 500 ppm): 95%
Efficacy (Table G1) ([4]; dose 100 ppm): 100%
Efficacy (Table G1) ([4]; dose 500 ppm): 100%

Cc1ccc(-c2cc(C(F)(F)F)cnc2CN(C(=O)c2c(C(F)F)nn(C)c2F)C2CC2)s1 [I.21]
logP [1]: 4.35
Efficacy at 100 ppm (Table C1) [2, 5]: 89%
Efficacy at 500 ppm (Table C1) [2, 5]: 98%

Cn1nc(C(F)F)c(C(=O)N(Cc2ncc(C(F)(F)F)cc2-c2ccncc2)C2CC2)c1F [CMP3, N-cyclopropyl-3-(difluoromethyl)-5-fluoro-1-methyl-N-{[5-(trifluoromethyl)-3,4′-bipyridin-2-yl]methyl}-1H-pyrazole-4-carboxamide, reference compound]
Efficacy (Table B1) ([3]; dose 100 ppm): 0%
Efficacy (Table B1) ([3]; dose 500 ppm): 0%
protection [3]: no protection
Efficacy (Table G1) ([4]; dose 100 ppm): 0%
Efficacy (Table G1) ([4]; dose 500 ppm): 17%

Cn1cc(C(=O)N(Cc2ncc(C(F)(F)F)cc2-c2ccsc2)C2CC2)c(C(F)F)n1 [I.41]
logP [1]: 3.42
Efficacy (Table C2) [2, 6]: 79%
Efficacy (Table C2) [2, 7]: 93%

Cc1nc(-c2ccc(Cl)cc2)sc1CN(C(=O)c1c(C(F)F)nn(C)c1F)C1CC1 [167 from WO2012/059497, N-{[2-(4-chlorophenyl)-4-methyl-1,3-thiazol-5-yl]methyl}-N-cyclopropyl-3-(difluoromethyl)-5-fluoro-1-methyl-1H-pyrazole-4-carboxamide]
Efficacy at 100 ppm (Table C1) [2, 8]: 0%
Efficacy at 500 ppm (Table C1) [2, 8]: 0%
protection [2, 9]: good (at least 80%) to no protection

Cn1cc(C(=O)N(Cc2nc(-c3ccc(Cl)cc3)cs2)C2CC2)c(C(F)(F)F)c1 [28 from WO2008/015189, N-{[4-(4-chlorophenyl)-1,3-thiazol-2-yl]methyl}-N-cyclopropyl-1-methyl-4-(trifluoromethyl)-1H-pyrrole-3-carboxamide]
Efficacy (Table C3) [2, 10]: 11%

Cn1nc(C(F)F)c(C(=O)N(Cc2cc(-c3cc(F)c(F)c(F)c3)no2)C2CC2)c1F [165 from WO2012/059497, N-cyclopropyl-3-(difluoromethyl)-5-fluoro-1-methyl-N-{[3-(3,4,5-trifluorophenyl)-1,2-oxazol-5-yl]methyl}-1H-pyrazole-4-carboxamide]
Efficacy at 100 ppm (Table C1) [2, 8]: 0%
Efficacy at 500 ppm (Table C1) [2, 8]: 10%
protection [2, 9]: good (at least 80%) to no protection

Cc1sc(-c2ccccc2)cc1C(C)N(C(=O)c1c(C(F)F)nn(C)c1F)C1CC1 (stereo not shown) [147 from WO2012/059497, N-cyclopropyl-3-(difluoromethyl)-5-fluoro-1-methyl-N-[1-(2-methyl-5-phenyl-3-thienyl)ethyl]-1H-pyrazole-4-carboxamide]
Efficacy at 100 ppm (Table C1) [2, 8]: 0%
Efficacy at 500 ppm (Table C1) [2, 8]: 30%
protection [2, 9]: good (at least 80%) to no protection

Cc1nc(-c2ccc(Cl)cc2)sc1CN(C(=O)c1c(C)nn(C)c1F)C1CC1 [17 from WO2008/015189, N-{[2-(4-chlorophenyl)-4-methyl-1,3-thiazol-5-yl]methyl}-N-cyclopropyl-5-fluoro-1,3-dimethyl-1H-pyrazole-4-carboxamide]
Efficacy (Table C3) [2, 10]: 10%

Cc1nn(-c2ccccc2)nc1CN(C(=O)c1c(C(F)F)nn(C)c1F)C1CC1 [131 from WO2012/059497, N-cyclopropyl-3-(difluoromethyl)-5-fluoro-1-methyl-N-[(5-methyl-2-phenyl-2H-1,2,3-triazol-4-yl)methyl]-1H-pyrazole-4-carboxamide]
Efficacy at 100 ppm (Table C1) [2, 8]: 0%
Efficacy at 500 ppm (Table C1) [2, 8]: 11%
protection [2, 9]: good (at least 80%) to no protection

Cn1cc(C(=O)N(Cc2cn(-c3ccccc3)c3ccccc23)C2CC2)c(C(F)F)n1 [18 from WO-2009/016222, N-cyclopropyl-3-(difluoromethyl)-1-methyl-N-[(1-phenyl-1H-indol-3-yl)methyl]-1H-pyrazole-4-carboxamide]
Efficacy (Table C2) [2, 11]: 0%
Efficacy (Table C2) [2, 10]: 0%
protection [2, 12]: good (at least 70%) to no protection

Cc1nc(-c2ccc(Cl)cc2)sc1CN(C(=O)c1cn(C)nc1C(F)F)C1CC1 [45 from WO2008/015189, N-{[2-(4-chlorophenyl)-4-methyl-1,3-thiazol-5-yl]methyl}-N-cyclopropyl-3-(difluoromethyl)-1-methyl-1H-pyrazole-4-carboxamide]
Efficacy (Table C3) [2, 10]: 0%

Cn1cc(C(=O)N(Cc2nc(-c3ccc(Cl)cc3)cs2)C2CC2)c(C(F)(F)F)n1 [59 from WO2008/015189, N-{[4-(4-chlorophenyl)-1,3-thiazol-2-yl]methyl}-N-cyclopropyl-1-methyl-3-(trifluoromethyl)-1H-pyrazole-4-carboxamide]
Efficacy (Table C3) [2, 10]: 0%

CCc1nn(C)c(F)c1C(=O)N(Cc1cn(-c2ccccc2)c2ccccc12)C1CC1 [29 from WO-2009/016222, N-cyclopropyl-3-ethyl-5-fluoro-1-methyl-N-[(1-phenyl-1H-indol-3-yl)methyl]-1H-pyrazole-4-carboxamide]
Efficacy (Table C2) [2, 11]: 22%
Efficacy (Table C2) [2, 10]: 67%
protection [2, 12]: good (at least 70%) to no protection

Cc1nn(C)c(F)c1C(=O)N(Cc1cn(-c2ccccc2)c2ccccc12)C1CC1 [13 from WO-2009/016222, N-cyclopropyl-5-fluoro-1,3-dimethyl-N-[(1-phenyl-1H-indol-3-yl)methyl]-1H-pyrazole-4-carboxamide]
Efficacy (Table C2) [2, 11]: 17%
Efficacy (Table C2) [2, 10]: 78%
protection [2, 12]: good (at least 70%) to no protection

Cc1cscc1-c1cc(C(F)(F)F)cnc1CN(C(=S)c1c(C(F)F)nn(C)c1F)C1CC1 [I.37]
logP [1]: 4.67
Efficacy (Table C2) [2, 6]: 86%
Efficacy (Table C2) [2, 7]: 93%

COc1ccsc1-c1cc(C(F)(F)F)cnc1CN(C(=O)c1c(C(F)F)nn(C)c1F)C1CC1 [I.23]
logP [1]: 3.89
Efficacy at 100 ppm (Table C1) [2, 5]: 98%
Efficacy at 500 ppm (Table C1) [2, 5]: 100%
